# Measurements from patent publication US20230172899A1, “CANNABINOID COMPOSITIONS” (priority 2020, published 2023).
# Read-outs that look alike come from different tables or passages of the source.
# Key:
# [1] = system: store-operated calcium entry (SOCE) in HEK293 cells; assay: SOCE inhibition, Fura-2 Ca2+ bioassay, thapsigargin-induced, HEK293 cells; assay type: cell-based, human; settings: for Inhibitory effect in immune cells compared with non-immune HEK293 cells: Jurkat vs HEK293 screening, 10 μM; for IC50: Homo sapiens
# [2] = system: store-operated calcium entry (SOCE) in Jurkat T cells; assay: SOCE inhibition, Fura-2 Ca2+ bioassay, thapsigargin-induced, Jurkat cells; assay type: cell-based, human; settings: for IC50: Homo sapiens; for Combinatory effect on SOCE inhibition when paired with CBGA / Effect on SOCE (Ca2+ signals), pure compounds / IC50 on SOCE relative to acidic variations: Jurkat cells; for Combinatory effect on SOCE inhibition when paired with CBGA: isobolographic analysis, pairs expected to inhibit 50%; for Effect on SOCE (Ca2+ signals), pure compounds: compounds at 10 μM, 1 μM thapsigargin; for IC50 on SOCE relative to acidic variations: dose response 0 to 30 μM
# [3] = system: store-operated calcium entry (SOCE) in U937 monocytes; assay: SOCE inhibition, Fura-2 Ca2+ bioassay, thapsigargin-induced, U937 cells; assay type: cell-based, human; settings: for IC50: Homo sapiens
# [4] = system: store-operated calcium entry (SOCE) in Luva human mast cells; assay: SOCE inhibition, Fura-2 Ca2+ bioassay, thapsigargin-induced, Luva cells; assay type: cell-based; settings: for IC50: Homo sapiens, Mast cell, read-out: IC50 SOCE Luva
# [5] = system: store-operated calcium entry (SOCE) in RBL-2H3 rat mast cells; assay: SOCE inhibition, Fura-2 Ca2+ bioassay, thapsigargin-induced, RBL-2H3 cells; assay type: cell-based; settings: for IC50: Rattus norvegicus
# [6] = system: store-operated calcium entry (SOCE) in THP-1 cells; assay: SOCE inhibition, combinatory (isobolographic) analysis, THP-1 cells; assay type: cell-based, human; settings: for Combinatory effect on SOCE inhibition when paired with CBGA: THP-1 cells, isobolographic analysis, pairs expected to inhibit 50%
# Protocol: Bar graphs shown in FIGS. 10A-10Z and 10BB display SOCE amplitudes calculated from area under the curve (AUC) of the SOCE signals and normalized to SOCE in the presence of gadolinium. Combinatory effects were assessed using an isobolographic analysis approach, where CBGA was paired with another cannabinoid using concentrations of CBGA corresponding to 50%, 40%, 30%, 20%, 10%, and 0% inhibition (as derived from the IC50 curves of FIGS. 9A-9P) and combined with concentrations of the paired cannabinoid, so that each combination would be expected to inhibit 50% of the Ca^2+ signal (e.g., the CBGA concentration causing 50% inhibition was tested alone without the other cannabinoid, the CBGA concentration expected to block 40% of the signal was combined with the concentration of the other cannabinoid expected to inhibit 10%, the CBGA concentration expected to block 30% of the signal was combined with the concentration of the other cannabinoid expected to inhibit 20%, and so on). Simple additivity of cannabinoid pairs would be expected to inhibit the Ca^2+ signal by 50%. All the data in these experiments represent an average of 3 independent runs and the values are graphed as mean values±SEM.
# [7] = system: store-operated calcium entry (SOCE) in THP-1 cells; assay: as above; assay type: cell-based, human; settings: 10 μM cannabinoid plus 2.2 μM CBGA
# [8] = Jurkat, read-out: IC50 SOCE Jurkat, Table 5, individual cannabinoids, Jurkat
# [9] = U-937, read-out: IC50 SOCE U937, Table 5, individual cannabinoids, U937
# [10] = RBL-2H3, read-out: IC50 SOCE RBL-2H3, Table 5, individual cannabinoids, RBL-2H3
# [11] = HEK293, read-out: IC50 SOCE HEK-293, Table 5, individual cannabinoids, HEK-293
# [12] = Jurkat, read-out: IC50 SOCE Jurkat
# [13] = U-937, read-out: IC50 SOCE U937
# [14] = RBL-2H3, read-out: IC50 SOCE RBL-2H3
# [15] = HEK293, read-out: IC50 SOCE HEK-293
Compound,"IC50 [2, 8]",Combinatory effect on SOCE inhibition when paired with CBGA [2],"IC50 [3, 9]",IC50 [4],"IC50 [5, 10]","IC50 [1, 11]",also measured
"CCCCCc1cc(O)c2c(c1)OC(C)(C)[C@@H]1CCC(C(=O)O)=C[C@@H]21 [11-nor-COOH-Δ9-THC, (6aR,10aR)-1-hydroxy-6,6-dimethyl-3-pentyl-6a,7,8,10a-tetrahydro-6H-benzo[c]chromene-9-carboxylic acid]",–,–,–,–,–,–,Inhibitory effect in immune cells compared with non-immune HEK293 cells [1]: selective
"CCCCCc1cc(O)c2c(c1)OC(C)(CCC=C(C)C)C=C2 (stereo not drawn) [CBC, 2-methyl-2-(4-methylpent-3-en-1-yl)-7-pentyl-2H-chromen-5-ol]",–,–,–,–,–,–,"IC50 SOCE Jurkat ([2]; Table 5, individual cannabinoids, Jurkat): 13.06 µg/mL; IC50 SOCE U937 ([3]; Table 5, individual cannabinoids, U937): 40.8 µg/mL; IC50 SOCE Luva ([4]; Table 5, individual cannabinoids, Luva): >50 µg/mL; IC50 SOCE RBL-2H3 ([5]; Table 5, individual cannabinoids, RBL-2H3): 26.8 µg/mL; IC50 SOCE HEK-293 ([1]; Table 5, individual cannabinoids, HEK-293): 31.6 µg/mL"
"CCCCCc1cc2c(c(O)c1C(=O)O)C=C[C@@](C)(CCC=C(C)C)O2 [CBCA, (R)-5-hydroxy-2-methyl-2-(4-methylpent-3-en-1-yl)-7-pentyl-2H-chromene-6-carboxylic acid]",1.13 µg/mL,Simple additive behavior,> 50 µg/mL,29.1 µg/mL,> 50 µg/mL,> 50 µg/mL,–
"C=C(C)[C@@H]1CCC(C)=C[C@H]1c1c(O)cc(CCCCC)cc1O [CBD, (1′R,2′R)-5′-methyl-4-pentyl-2′-(prop-1-en-2-yl)-1′,2′,3′,4′-tetrahydro-[1,1′-biphenyl]-2,6-diol]",–,Simple additive behavior,–,> 50 µg/mL,2.53 µg/mL,> 50 µg/mL,"IC50 [2, 12]: 7.42 µg/mL; Effect on SOCE (Ca2+ signals), pure compounds [2]: low to no effects; IC50 on SOCE relative to acidic variations [2]: higher IC50 than their acidic variations; IC50 [3, 13]: > 50 µg/mL; IC50 ([6]; Homo sapiens, THP-1, read-out: SOCE IC50): > 30 µM; Combinatory effect when paired with 2.2 μM CBGA [7]: sub-additive"
"C=C(C)[C@@H]1CCC(C)=C[C@H]1c1c(O)cc(CCCCC)c(C(=O)O)c1O [CBDA, (1′R,2′R)-2,6-dihydroxy-5′-methyl-4-pentyl-2′-(prop-1-en-2-yl)-1′,2′,3′,4′-tetrahydro-[1,1′-biphenyl]-3-carboxylic acid]",4.07 µg/mL,inhibit less than predicted,5.83 µg/mL,5.17 µg/mL,2.4 µg/mL,16.1 µg/mL,Inhibitory effect in immune cells compared with non-immune HEK293 cells [1]: selective; Combinatory effect on SOCE inhibition when paired with CBGA [6]: sub-additive combinatory effects
"C=C(C)[C@@H]1CCC(C)=C[C@H]1c1c(O)cc(CCC)cc1O [CBDV, (1′R,2′R)-5′-methyl-2′-(prop-1-en-2-yl)-4-propyl-1′,2′,3′,4′-tetrahydro-[1,1′-biphenyl]-2,6-diol]",6 µg/mL,inhibit less than predicted,17.5 µg/mL,> 50 µg/mL,0.17 µg/mL,30.2 µg/mL,Inhibitory effect in immune cells compared with non-immune HEK293 cells [1]: selective
"C=C(C)[C@@H]1CCC(C)=C[C@H]1c1c(O)cc(CCC)c(C(=O)O)c1O [CBDVA, (1′R,2′R)-2,6-dihydroxy-5′-methyl-2′-(prop-1-en-2-yl)-4-propyl-1′,2′,3′,4′-tetrahydro-[1,1′-biphenyl]-3-carboxylic acid]",–,inhibit less than predicted,–,8.45 µg/mL,–,–,"IC50 [2, 12]: 11.3 µg/mL; IC50 [3, 13]: 10.6 µg/mL; IC50 [5, 14]: 11.3 µg/mL; IC50 [1, 15]: 23.5 µg/mL"
"CCCc1cc(O)c(C/C=C(\C)CCC=C(C)C)c(O)c1C(=O)O [CBGVA, (E)-3-(3,7-dimethylocta-2,6-dien-1-yl)-2,4-dihydroxy-6-propylbenzoic acid]",1.15 µg/mL,Simple additive behavior,2.86 µg/mL,2.6 µg/mL,2.53 µg/mL,4.15 µg/mL,Combinatory effect on SOCE inhibition when paired with CBGA [6]: sub-additive combinatory effects
"CCCCCc1cc(O)c2c(c1)O[C@]1(C)CCC3[C@@H]1[C@@H]2C3(C)C (stereo partly drawn) [CBL, (1aS,1a1R,3aR,8bR)-1,1,3a-trimethyl-6-pentyl-1a,1a1,2,3,3a,8b-hexahydro-1H-4-oxabenzo[f]cyclobuta[cd] inden-8-ol]",> 50 µg/mL,Simple additive behavior,> 50 µg/mL,> 50 µg/mL,> 50 µg/mL,> 50 µg/mL,–
"CCCCCc1cc2c(c(O)c1C(=O)O)[C@@H]1[C@H]3C(CC[C@@]3(C)O2)C1(C)C (stereo partly drawn) [CBLA, (1aS,1a1R,3aR,8bR)-8-hydroxy-1,1,3a-trimethyl-6-pentyl-1a,1a1,2,3,3a,8b-hexahydro-1H-4-oxabenzo[f]cyclobuta[cd] indene-7-carboxylic acid]",–,inhibit less than predicted,–,12.4 µg/mL,–,–,"IC50 [2, 12]: 9.29 µg/mL; IC50 [3, 13]: 28.3 µg/mL; IC50 [5, 14]: 20.9 µg/mL; IC50 [1, 15]: > 50 µg/mL"
"CCCCCc1cc2c(c(O)c1C(=O)O)-c1cc(C)ccc1C(C)(C)O2 [CBNA, 1-hydroxy-6,6,9-trimethyl-3-pentyl-6H-benzo[c]chromene-2-carboxylic acid]",0.99 µg/mL,Simple additive behavior,19.2 µg/mL,7.25 µg/mL,> 50 µg/mL,22.5 µg/mL,Combinatory effect on SOCE inhibition when paired with CBGA [6]: sub-additive combinatory effects
"C=C(C)c1ccc(C)cc1-c1c(O)cc(CCCCC)cc1O [CBND, 5′-methyl-4-pentyl-2′-(prop-1-en-2-yl)-[1,1′-biphenyl]-2,6-diol]",6.7 µg/mL,Simple additive behavior,24 µg/mL,> 50 µg/mL,19 µg/mL,32.8 µg/mL,–
"CCCCCc1cc(OC)c2c(c1)OC(C)(C)c1ccc(C)cc1-2 [CBNM, 1-methoxy-6,6,9-trimethyl-3-pentyl-6H-benzo[c]chromene]",> 50 µg/mL,–,> 50 µg/mL,> 50 µg/mL,> 50 µg/mL,> 50 µg/mL,–
"CCCCCc1cc2c(c(O)c1C(=O)O)[C@@H]1C=C(C)CC[C@H]1C(C)(C)O2 [THCA, (6aR,10aR)-1-hydroxy-6,6,9-trimethyl-3-pentyl-6a,7,8,10a-tetrahydro-6H-benzo[c]chromene-2-carboxylic acid]",2.23 µg/mL,Simple additive behavior,8.1 µg/mL,10.4 µg/mL,0.57 µg/mL,17.5 µg/mL,Combinatory effect on SOCE inhibition when paired with CBGA [6]: sub-additive combinatory effects
"CCCc1cc(O)c2c(c1)OC(C)(C)[C@@H]1CCC(C)=C[C@@H]21 [THCV, (6aR,10aR)-6,6,9-trimethyl-3-propyl-6a,7,8,10a-tetrahydro-6H-benzo[c]chromen-1-ol]",10.7 µg/mL,stronger than predicted inhibitions,> 50 µg/mL,> 50 µg/mL,> 50 µg/mL,> 50 µg/mL,Inhibitory effect in immune cells compared with non-immune HEK293 cells [1]: selective
"CCCc1cc2c(c(O)c1C(=O)O)[C@@H]1C=C(C)CC[C@H]1C(C)(C)O2 [THCVA, (6aR,10aR)-1-hydroxy-6,6,9-trimethyl-3-propyl-6a,7,8,10a-tetrahydro-6H-benzo[c]chromene-2-carboxylic acid]",0.633 µg/mL,stronger than predicted inhibitions,20.2 µg/mL,9.43 µg/mL,20.2 µg/mL,21.3 µg/mL,Combinatory effect on SOCE inhibition when paired with CBGA [6]: sub-additive combinatory effects
"CCCCCc1cc(O)c2c(c1)OC(C)(C)[C@@H]1CCC(C)=C[C@@H]21 [Δ9-THC, (6aR,10aR)-6,6,9-trimethyl-3-pentyl-6a,7,8,10a-tetrahydro-6H-benzo[c]chromen-1-ol]",> 50 µg/mL,–,> 50 µg/mL,> 50 µg/mL,0.97 µg/mL,> 50 µg/mL,"Effect on SOCE (Ca2+ signals), pure compounds [2]: low to no effects; IC50 on SOCE relative to acidic variations [2]: higher IC50 than their acidic variations"
